Experimental data taken from paper PMC7696255, “In-Silico Identified New Natural Sortase A Inhibitors Disrupt S. aureus Biofilm Formation” (International Journal of Molecular Sciences, 2020).
Converted amounts (≈) assume the structure as drawn. “And” between values parts separate entries of the source, which are not always exact repeats. Equal entries are not always repeated. Structures can show the parent of a compound that is named as a salt. Where two headings read alike, the source gives them in different places.

Assays:
S. aureus sortase A [1] = biological target: T1, S. aureus sortase A (Staphylococcus aureus, UniProt Q2FV99); assay: SrtA enzyme inhibition FRET assay, DABCYL-LPETG-EDANS substrate; format: biochemical
T1 construct: purchased AnaSpec AS-72229
Method: (§1) The enzymatic reactions were carried out in black, low-binding polystyrene 384 well plates (Greiner Bio-One). […] SrtA was pre-incubated in the reaction buffer with compounds for 1 h at room temperature prior to the addition of the FRET substrate. Assays were performed in 50 µL reactions with 50 ng of S. aureus sortase A and 25 µM of DABCYL-LPETG-EDANS substrate or 1 µM of 5-FAM/QXL^TM 520 substrate. The inhibitory activity of the compounds was determined by monitoring the rise in fluorescence intensity over 24 h at Ex/Em = 336 nm/490 nm for the DABCYL/EDANS substrate and Ex/Em = 490 nm/520 nm for the 5-FAM/QXL 520 substrate on a Tecan Infinite M1000 Pro reader.
(§2) Raw fluorescence data were corrected for autofluorescence before computing percentage inhibition values. These percentage inhibition values were plotted against compound concentration using GraphPad Prism version 8.0 by nonlinear regression analysis using least squares fit method for IC50 determination. Testing was performed twice to ensure reproducibility of results.

S. aureus sortase A [2] = biological target: T1, S. aureus sortase A; assay: SrtA enzyme inhibition FRET assay, 5-FAM/QXL 520 substrate; format: biochemical
Method: as §1, §2

[3] = tested on: S. aureus ATCC 33591 (MRSA); assay: S. aureus whole cell assay (MIC, microbroth dilution); format: cell-based, Staphylococcus aureus; conditions: 24 h
Method: (§3) Minimum inhibitory concentration (MIC) tests were performed according to procedures of the Clinical Laboratory Standards Institute (CLSI) with minor changes using the microbroth dilution technique in a 384-well setup. Inoculum of each S. aureus strain was prepared by suspending segregated colonies in sterile saline to a 0.5 McFarland standard. An inoculum of 2–8 × 10^5 CFU/mL was incubated with the compounds for 24 h at 37 °C. Gentamicin (data not shown) was incubated in the same manner as the test compounds and served as a positive control. The effect of the compounds on bacterial growth was calculated by quantifying the optical density at 600 nm on a microplate reader (Tecan, Infinite M1000, Salzburg, Austria). Dilutions of the inoculum were cultivated on agar to verify the validity of the inoculum seeding density and absence of contamination. All tests were executed in triplicate during two separate experiments.

[4] = tested on: S. aureus ATCC 33591 (MRSA) biofilm formation; assay: Biofilm inhibitory assay (crystal violet), biofilm formation; format: cell-based, Staphylococcus aureus; conditions: for IC50: S. aureus ATCC 33591 (MRSA), biofilm formation, read-out: Biofilm Inhibition IC50
Method: (§4) The effectiveness of SrtA inhibitors in reducing biofilm formation and growth was assessed using the crystal violet (CV) biofilm assay with the following modifications. TSB with 2% glucose (TSB without glucose for E. coli) was inoculated with 10^5 CFU/mL of S. aureus and E. coli overnight cultures. A total of 90µl of this cell suspension was then dispensed into 96-well microtiter plates containing 10 µL of different concentrations of the SrtA inhibitors. After 24 h growth at 37 °C the plates were washed with PBS to remove unbound cells and heat fixed at 60 °C for 30 min. Next, the wells were stained with 0.1% crystal violet solution for 15 min at room temperature. At the completion of the incubation plates were washed 3 times with PBS and dried. Then the crystal violet dye from the biofilm was solubilized with 200 µL of DMSO. A total of 100 µL of this solution was then moved to a new microtiter plate for absorbance measurement at 595 nm. For pre-formed biofilm assay, the plates were prepared and incubated as mentioned earlier, without SrtA inhibitors. After 24 h incubation, the culture supernatant was removed gently and biofilm carefully washed with sterile PBS. Next, 10 µL of different concentrations of SrtA inhibitors with 90 µL of TSB with 2% glucose were added carefully into the wells and incubated at 37 °C for 24 h. The amount of crystal violet staining of biofilm was measured as described above. The results were reported as percent inhibition normalized to the wild type control. Two independent experiments were performed in triplicate to ensure reproducibility.

[5] = tested on: S. aureus Newman biofilm formation; assay: as above; format: cell-based, Staphylococcus aureus; conditions: CV assay; for IC50: biofilm formation, read-out: Biofilm Inhibition IC50
Method: as §4

[6] = tested on: S. aureus Newman pre-formed biofilms; assay: Biofilm inhibitory assay (crystal violet), pre-formed biofilms; format: cell-based, Staphylococcus aureus; conditions: pre-formed biofilms, CV assay, read-out: Biofilm Inhibition IC50
Method: as §4

[7] = biological target: adherence of S. aureus Newman to fibrinogen; assay: Fibrinogen binding assay; format: cell-based, Staphylococcus aureus; conditions: for IC50: read-out: Fibrinogen adherence Inhibition IC50; for concentration giving ≥90% prevention of S. aureus Newman adherence to fibrinogen: compared to untreated wildtype strain
Method: Fibrinogen binding assay was completed as described but with slight revision. A flat-bottom 96-well plate was covered with fibrinogen protein by adding 50 µL of 20 µg/mL of fibrinogen protein from bovine plasma diluted in saline and incubated at 4 °C for 24 h. The coated plates were gently rinsed twice with PBS and blocked for 60 min with 4% bovine serum albumin (BSA). The plates were then washed 3 times with PBS. For this assay, S. aureus Newman strain was cultivated in TSB at 37 °C to exponential phase (OD600 = 0.5) and then the bacterial culture was incubated with various concentrations of test compound or control for 2.5 h. Then the cells were pelleted by centrifugation at 10,000× g for 10 min, the supernatants were removed and the cell pellets stored at −20 °C. The following day, cell pellets were suspended in PBS and dispersed in 100 μL aliquots to distinct wells of fibrinogen-coated 96-well plates. After 2 h of growth at 37 °C, the bacterial supernatant was discarded and the wells were rinsed gently with 150 µl PBS. Then the bacterial cells were fixed with 2% (v/v) glutaraldehyde and incubated for 30 min at 25 °C. After a wash with PBS, bound cells were stained with 0.1% crystal violet dye for 15 min. Plates were rinsed twice again with PBS, enclosed with aluminum foil, then stored at room temperature to dry overnight. On the next day absorbance was measured at 570 nm. The results were described as the percent of adhesion inhibition normalized to the wild type control. Two independent experiments were performed in triplicate to ensure reproducibility.

S. aureus ATCC 25923 = assay: S. aureus whole cell assay (MIC, microbroth dilution); format: cell-based, Staphylococcus aureus
Method: as §3

S. aureus Newman = assay: as above; format: cell-based, Staphylococcus aureus; conditions: 24 h
Method: as §3

A549 cells = assay: Mammalian cell cytotoxicity assay (PrestoBlue); format: cell-based, human; conditions: read-out: Mammalian cell lines IC50
Method: (§5) A549 and HepG2 cells were seeded at 1500 and 2500 cells per well, respectively, in 384-well microplates and incubated at 37 °C in the presence of 5% CO2. The next day, cells were treated with compounds then incubated for an additional 72 h. To assess the cytotoxic effect of the compounds PrestoBlue cell viability reagent (Life Technologies, Carlsbad, CA, USA) was used. After the 72 h incubation with compounds, the 384-well assay plates were incubated with this viability indicator dye for 2 h (A549) and 4 h (HepG2) before fluorescence reading at Ex/Em = 560 nm/590 nm on the Tecan Infinite M1000 Pro reader. Puromycin (data not shown) was used as the positive control against both cell lines. All tests were executed in triplicate on two separate experiments.

HepG2 cells = assay: Mammalian cell cytotoxicity assay (PrestoBlue); format: cell-based, human; conditions: read-out: Mammalian cell lines IC50
Method: as §5

[8] = tested on: S. aureus ATCC 33591 (MRSA) pre-formed biofilms; assay: Biofilm inhibitory assay (crystal violet), pre-formed biofilms; format: cell-based, Staphylococcus aureus; conditions: in words
Method: as §4

[9] = tested on: E. coli ATCC 25922 biofilm formation; assay: Biofilm inhibitory assay (crystal violet), biofilm formation; format: cell-based; conditions: in words; CV assay
Method: as §4, with “Next, 10 µL of different concentrations of SrtA inhibitors with 90 µL of TSB with 2% glucose were added carefully into the wells and incubated at 37 °C for 24 h.” left out, “The results were reported as percent inhibition normalized to the wild type control. Two independent experiments were performed in triplicate to ensure reproducibility.” left out

T1 sequence (Q2FV99 whole entry): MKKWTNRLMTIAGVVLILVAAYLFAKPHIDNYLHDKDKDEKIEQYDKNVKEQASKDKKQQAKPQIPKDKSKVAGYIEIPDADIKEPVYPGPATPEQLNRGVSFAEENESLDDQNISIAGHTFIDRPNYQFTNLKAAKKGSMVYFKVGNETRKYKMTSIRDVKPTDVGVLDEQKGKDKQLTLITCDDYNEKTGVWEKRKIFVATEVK

`O=C(O)c1cc[c]([Hg][OH])cc1` [p-HMB, p-hydroxymercuribenzoic acid, reference compound] was tested, and the IC50 (S. aureus sortase A [1]; DABCYL-LPETG-EDANS substrate, 4 h, read-out: Sortase A IC50) was 0.2 ± 0.07 µM, the IC50 (S. aureus sortase A [2]; 5-FAM/QXL substrate, 10 min, read-out: Sortase A IC50) was 0.18 ± 0.08 µM and the “S. aureus MIC” value [3] was 6.7 ± 1.5 µM. For the same molecule, the IC50 [4] was > 150 µM, the “concentration giving >90% inhibition of biofilm formation” value [5] was 22 µM and the IC50 [5] was 11.9 µM and 12 µM. The IC50 [6] was 43 ± 3.6 µM, the IC50 ([7]; S. aureus Newman) was 37.4 ± 5.3 µM and the “concentration giving ≥90% prevention of S. aureus Newman adherence to fibrinogen” value [7] was > 170 µM.
With `CC(C)=CCc1c(O)c(CC=C(C)C)c2occ(-c3ccc(O)cc3)c(=O)c2c1O` [Compound N942, 6,8-diprenylgenistein] the IC50 (S. aureus sortase A [1]) was > 200 µM and the IC50 (S. aureus sortase A [2]) was > 200 µM.
For `COc1ccc(CC(N)C(=O)NC2C(C(=O)O)OC(n3cnc4c(N)ncnc43)C2O)cc1` (stereo not shown) [Compound N2238, Chryscandin], the IC50 (S. aureus sortase A [1]) was > 200 µM and the IC50 (S. aureus sortase A [2]) was > 200 µM.
`Cc1cc(O)c2c(c1)C(=O)c1c(c(O)cc(O)c1-c1c(O)cc(O)c3c1C(=O)c1cc(C)cc(O)c1C3=O)C2=O` [Compound N1287, Skyrin] was tested, and the IC50 (S. aureus sortase A [1]; Sortase A IC50, DABCYL-LPETG-EDANS substrate, 4 h) was 24 ± 2.1 µM, the IC50 (S. aureus sortase A [1]; SrtA enzymatic activity IC50, text summary, Figure 2A,B, both substrates) was < 50 µM and the IC50 (S. aureus sortase A [2]; Sortase A IC50, 5-FAM/QXL substrate, 10 min) was 31 ± 0.3 µM. For the same molecule, the “S. aureus MIC” value (S. aureus ATCC 25923; 24 h) was 5 to 8 µM, the MIC (S. aureus ATCC 25923; Staphylococcus aureus, ATCC25923, 24 h) was 7.2 ± 0.1 µM (≈ 3.88 µg/mL) and the “S. aureus MIC” value (S. aureus Newman; Newman) was 5 to 8 µM. The MIC (S. aureus Newman; Staphylococcus aureus, NEWMAN) was 7.3 ± 0.8 µM (≈ 3.93 µg/mL), the IC50 (A549 cells; 72 h) was 60 to 90 µM and the IC50 (A549 cells; Homo sapiens, A549, 72 h) was 64.7 ± 6.2 µM. For the same molecule, the IC50 (HepG2 cells; 72 h) was 60 to 90 µM, the IC50 (HepG2 cells; Homo sapiens, HepG2, 72 h) was 63.9 ± 5.1 µM and the IC50 ([4]; Staphylococcus aureus) was 41.9 µM. The “inhibitory activity on MRSA biofilm formation” value ([4]; in words) was “exhibited inhibitory activity”, the “concentration giving >90% inhibition of biofilm formation” value [5] was 23 µM and the IC50 ([5]; Staphylococcus aureus, NEWMAN) was 12.2 ± 4.1 µM. The IC50 [5] was 12 µM, the “inhibitory activity on MRSA pre-formed biofilms” value [8] was “not against pre-formed biofilms” and the “effect on E. coli ATCC 25922 biofilm formation” value [9] was “did not show any effect”. The IC50 ([7]; Staphylococcus aureus, NEWMAN) was 9.5 ± 0.5 µM and the “concentration giving ≥90% prevention of S. aureus Newman adherence to fibrinogen” value [7] was 46 µM.
In the case of `COc1ccc(C[C@H](N)C(=O)N[C@H]2[C@@H](O)[C@H](n3cnc4c(N(C)C)ncnc43)O[C@@H]2CO)cc1` [Compound N51, Puromycin hydrochloride], the IC50 (S. aureus sortase A [1]) is reported as > 200 µM and the IC50 (S. aureus sortase A [2]) is reported as > 200 µM.
`CC(C)(O)[C@H]1O[C@H]2CC[C@@]3(C)[C@@](O)(CC[C@H]4Cc5c([nH]c6ccccc56)[C@@]43C)C2=CC1=O` [Compound N563, Paxilline] was tested, and the IC50 (S. aureus sortase A [1]) was > 200 µM and the IC50 (S. aureus sortase A [2]) was > 200 µM.
